Measured values: patent US20260265408A1, “GD2-SPECIFIC CHIMERIC ANTIGEN RECEPTOR EFFECTOR CELLS FOR USE IN THE TREATMENT OF SOLID TUMORS, POSSIBLY IN COMBINATION WITH ENHANCER OF ZESTE HOMOLOG 2 (EZH2) INHIBITORS” (priority 2023, published 2026)

Test system: CAR.GD2 T-cells
Experiment: In vivo activation of iC9 suicide gene by AP1903 in PDX-MB mouse model
Set-up: species or system NSG mice
Experimental: The in vivo activity of AP1903 on apoptosis induction of CAR. GD2 T-cells was assessed in in vivo PDX-MB mouse model. Briefly, 2×10^5 Med-411FH mCherry/Luciferase were orthotopic infused in 5-week-old female NSG mice. After tumor engraftment, confirmed by bioluminescence monitoring, mice received an intravenous injection (i.v.) of 10×10^6 of NT T or genetically modified CAR.GD2 T cells. Ten days later, when the presence of circulating T cells was confirmed by flow cytometric analysis, mice were randomly divided in four groups and treated or not treated by intraperitoneal (i.p.) infusion with AP1903 (100 mg/mouse) on day +11, day +12 and day +13 (NT-T no AP1903, NT-T AP1903+ or CAR. GD2-T no AP1903, CAR.GD2-T AP1903+). The residual of effector cells was evaluated 24 hours after the last AP1903 treatment by flow cytometric analysis in the peripheral blood or histologic and IHC analysis in brain/tumor tissue. Animals were sacrificed and brains were fixed in 4% formaldehyde in 0.1 mol/L phosphate buffer (pH 7.2) and paraffin embedded. AP1903 (cat. No. 6130, Biotechne-TOCRIS).
The histopathologic analysis was performed as previously reported^74. Briefly, after Haematoxylin/Eosin staining for IHC analysis, the sections were cut to 2.5 μm thick, dewaxed, and rehydrated. Epitope retrieval was performed by boiling the slides with EDTA (pH 9). Endogenous peroxidase was blocked with 3% hydrogen peroxide for 10 minutes followed by another blocking step in 5% serum albumin (BSA) for 1-hour RT. The sections were then incubated with anti-CD3 antibody (1:100, DAKO) or anti-Ki67 (1:100, Abcam) at 4° C. overnight. Secondary biotinylated antibody (K8024, Dako, Carpinteria, USA) and the peroxidase DAB kit (Dako, Carpinteria, USA) were used to reveal the primary antibodies. Slides were then counterstained with hematoxylin, dehydrated with a series of alcohol solutions (70%-100%), followed by three changes of Diasolv and mounted with Diamount (Diapath). Analysis was performed using standard microscopy.

In the case of `CC[C@H](C(=O)N1CCCC[C@H]1C(=O)O[C@H](CCc1ccc(OC)c(OC)c1)c1cccc(OCC(=O)NCCNC(=O)COc2cccc([C@@H](CCc3ccc(OC)c(OC)c3)OC(=O)[C@@H]3CCCCN3C(=O)[C@@H](CC)c3cc(OC)c(OC)c(OC)c3)c2)c1)c1cc(OC)c(OC)c(OC)c1` [AP1903], the “circulating CAR.GD2-T cells” value (AP1903 i.p. 100 mg/mouse on three consecutive days, compared to untreated) is reported as “significant reduction”, the “tumor-infiltrating CD3+ cells (anti-hCD3 IHC on cerebella slides)” value (AP1903 i.p. on three consecutive days) is reported as “eliminate tumor-infiltrating CD3+ cells” and the “crossing of the BBB” value (systemic (i.p.) administration) is reported as “cross the BBB”.
